Source: US7307100B2, “2-Benzoylchromone derivatives” (Merck Patent GmbH, priority 2002, dated 2007)

How the values were obtained:
PKB = PKB (Homo sapiens, UniProt P31749); test: Inhibition of PKB (serine/threonine kinase); assay type: biochemical; conditions: read-out: Inhibition of PKB expressed in IC50
Method: (§1) The 2-benzoylchromone derivatives were tested as tyrosine kinase inhibitors (see Table 1: Inhibition of TIE-2), but also as serine/threonine kinase inhibitors (see Table 1: PKB).

TIE-2 = TIE-2 (Homo sapiens, UniProt Q02763); test: Inhibition of TIE-2 (tyrosine kinase); assay type: biochemical; conditions: read-out: Inhibition of TIE-2 expressed in IC50
Method: as §1

PKB, sequence (P31749 whole entry): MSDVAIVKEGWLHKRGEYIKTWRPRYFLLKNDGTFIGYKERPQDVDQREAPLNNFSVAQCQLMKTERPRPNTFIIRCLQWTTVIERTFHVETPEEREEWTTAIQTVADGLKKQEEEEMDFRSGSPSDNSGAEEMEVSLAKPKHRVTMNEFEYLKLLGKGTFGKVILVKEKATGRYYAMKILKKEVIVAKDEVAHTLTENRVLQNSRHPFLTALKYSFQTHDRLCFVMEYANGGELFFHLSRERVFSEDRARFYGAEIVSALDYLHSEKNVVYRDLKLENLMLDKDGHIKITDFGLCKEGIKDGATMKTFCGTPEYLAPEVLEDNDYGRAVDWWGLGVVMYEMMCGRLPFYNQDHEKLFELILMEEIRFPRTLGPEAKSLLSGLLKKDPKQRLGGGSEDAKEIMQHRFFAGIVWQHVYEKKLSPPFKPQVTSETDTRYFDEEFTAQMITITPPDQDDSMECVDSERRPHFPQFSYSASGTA
TIE-2, sequence (Q02763 23-1124): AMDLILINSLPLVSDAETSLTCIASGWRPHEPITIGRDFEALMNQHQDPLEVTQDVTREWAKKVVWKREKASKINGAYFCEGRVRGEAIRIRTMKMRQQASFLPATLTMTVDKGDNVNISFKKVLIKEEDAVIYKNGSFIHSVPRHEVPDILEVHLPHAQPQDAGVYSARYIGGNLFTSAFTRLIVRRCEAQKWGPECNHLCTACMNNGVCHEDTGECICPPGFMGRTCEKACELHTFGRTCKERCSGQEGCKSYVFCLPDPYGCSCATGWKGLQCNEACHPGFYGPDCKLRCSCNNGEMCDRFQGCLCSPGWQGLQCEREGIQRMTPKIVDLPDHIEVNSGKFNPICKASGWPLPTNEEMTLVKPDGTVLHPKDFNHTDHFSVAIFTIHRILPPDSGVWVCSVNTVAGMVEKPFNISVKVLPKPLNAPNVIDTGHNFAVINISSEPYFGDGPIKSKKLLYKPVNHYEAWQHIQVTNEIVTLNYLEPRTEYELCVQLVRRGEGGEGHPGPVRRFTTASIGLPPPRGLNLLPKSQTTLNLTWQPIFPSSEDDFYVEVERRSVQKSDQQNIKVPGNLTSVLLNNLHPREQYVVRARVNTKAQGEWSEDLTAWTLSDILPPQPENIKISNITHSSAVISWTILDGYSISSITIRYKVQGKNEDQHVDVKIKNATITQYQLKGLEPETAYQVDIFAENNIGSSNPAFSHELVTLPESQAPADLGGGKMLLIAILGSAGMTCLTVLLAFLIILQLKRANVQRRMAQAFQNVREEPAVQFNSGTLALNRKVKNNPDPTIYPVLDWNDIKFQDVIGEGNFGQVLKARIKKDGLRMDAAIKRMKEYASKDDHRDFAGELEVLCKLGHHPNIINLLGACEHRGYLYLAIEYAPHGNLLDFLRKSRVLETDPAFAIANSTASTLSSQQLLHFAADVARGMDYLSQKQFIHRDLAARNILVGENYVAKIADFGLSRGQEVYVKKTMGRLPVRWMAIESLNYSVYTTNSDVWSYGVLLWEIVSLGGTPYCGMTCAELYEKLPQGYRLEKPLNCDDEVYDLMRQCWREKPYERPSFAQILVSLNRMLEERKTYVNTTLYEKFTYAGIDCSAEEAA

IC50 (PKB)	IC50 (TIE-2)	Compound
> 30 µM	> 10 µM	O=C(c1cc(=O)c2c(O)cccc2o1)c1ccc(O)cc1O [5-hydroxy-2-(2′,4′-dihydroxybenzoyl)chromone]
> 30 µM	3.6 µM	O=C(c1cc(=O)c2cc3c(cc2o1)OCO3)c1cc2c(cc1O)OCO2 [6,7-methylenedioxy-2-(2′-hydroxy-4′,5′-methylenedioxybenzoyl)chromone]
> 30 µM	> 10 µM	O=C(c1cc(=O)c2cc(O)ccc2o1)c1cc2c(cc1O)OCO2 [6-hydroxy-2-(2′-hydroxy-4′,5′-methylenedioxybenzoyl)chromone]
